From patent publication US20110300073A1, “18F-LABELLED THREE-AND FOUR-CARBON ACIDS FOR PET IMAGING” (priority 2008, published 2011)

What was measured:
CWR22RV1 xenografts = assay: single isotope [18F] biodistribution study in mice with CWR22rv1 tumors; assay type: in vivo; settings: for tumor to organ ratio, blood / tumor to organ ratio, bone / tumor to organ ratio, heart / tumor to organ ratio, kidneys / tumor to organ ratio, large intestine / tumor to organ ratio, liver / tumor to organ ratio, lungs / tumor to organ ratio, muscle / tumor to organ ratio, small intestine / tumor to organ ratio, spine / tumor to organ ratio, spleen / tumor to organ ratio, stomach: tail vein, nude mice with CWR22RV1 xenografts
Protocol: (§1) All animal experiments were done in accordance with protocols approved by the Institutional Animal Care and Use Committee of Memorial Sloan-Kettering Cancer Center and followed National Institutes of Health guidelines for animal welfare. Subcutaneous tumors were produced in nude mice (20-25 g; Charles River Laboratories) by subcutaneous injection of 5×10^6 tumor cells in 200 μl consisting of 100 μl of cell culture medium and 100 μl of Matrigel under 2% Isofluorane anesthesia on the right forelimb of mice.
For single isotope ([^18F]) biodistribution studies, mice with CWR22rv1 tumors were injected intravenously in the tail vein with 3.7-5.5 MBq (100-150 μCi) of [^18F]-FPA in 200 μL of saline. Radioactivity in the syringe before and after administration was measured in an energy-calibrated dose calibrator (CRC-15R; Capintec) and exact quantity received by each animal was determined. The animals were euthanized at different time points and then the organs were harvested. [^18F] radioactivity was measured in a calibrated gamma counter (Perkin Elmer 1480 Wizard 3 Auto Gamma counter, Waltham, Mass.) using 400-600 keV energy window and decay correction. The counts were converted into activity and % ID/g was calculated by dividing with decay corrected injected activity and weight of the organ. […] In addition to tumor, there is high uptake in blood and heart. The tumor to organ ratio of 2-[^18F]-FPA at 1, 2, 3 and 4 hour post injection is: […]

[1] = tested on: prostate cancer CWR22RV1 xenografts; assay: MicroPET imaging of nude mice with CWR22RV1 xenografts; assay type: in vivo
Protocol: Small animal PET imaging was performed on MicroPET, to evaluate the potential of 2-[^18F]-fluoropropanoic acid (2-[^18F]-FPA), and 2-[^18F]-fluorobutanoic acid (2-[^18F]-FBA) as tumor imaging agents in mice with prostate cancer CWR22RV1 xenografts. […] In addition to uptake in the tumor, there is high uptake in heart and brain.
The mice were imaged using MicroPET first with [^18F]-FDG after 4 hour fasting 1 hour post injection. The activity was allowed to decay for 20 hrs and the same mice were imaged with 2-[^18F]-FPA 1 hour post injection. In case of 2-[^18F]-FPA, the animals were not fasted. […] 2-[^18F]-FPA has high uptake in brain like [^18F]
as §1
Imaging was performed by use of a dedicated small-animal PET scanner (Focus 120 microPET; Siemens Medical Solutions USA, Inc.). Mice were maintained under 2% isoflurane anesthesia in oxygen at 2 L/min during the entire scanning period. Imaging was performed one hour post administration of 11.1 MBq (300 μCi) of either 2-[^18F]-FPA or [^18F]-FDG via the lateral tail vein. An energy window of 350-700 keV and a coincidence timing window of 6 ns were used. The image data were corrected for non-uniformity of the scanner response, dead time count losses, and physical decay to the time of injection. No correction was applied for attenuation, scatter, or partial-volume averaging. The measured reconstructed spatial resolution of the Focus 120 scanner is ˜1.6 mm full width at half maximum at the center of the field of view.

rats [2] = settings: Dreisbach's Handbook of Poisoning; cited from earlier work
rats [3] = assay: toxicity in rats (oral LD50 / single dose); settings: given at 212 mg/kg to rats
[4] = summary over 1-4 hour post injection

CC([18F])C(=O)O (centres unmarked) [2-[^18F]-FPA, 2-[^18F]-fluoropropanoic acid]
biodistribution during the time of study (CWR22RV1 xenografts; 1, 2, 3 and 4 hour post administration via tail vein): remains similar
accumulation of tracer in tumor (CWR22RV1 xenografts; 1-4 hour post administration): considerable accumulation
uptake in blood (CWR22RV1 xenografts; 1-4 hour post administration): high uptake
uptake in heart (biodistribution) (CWR22RV1 xenografts; 1-4 hour post administration): high uptake
tumor to organ ratio, blood (CWR22RV1 xenografts; 1 hour post injection): 1.05
tumor to organ ratio, bone (CWR22RV1 xenografts; 1 hour post injection): 2.79
tumor to organ ratio, heart (CWR22RV1 xenografts; 1 hour post injection): 0.90
tumor to organ ratio, kidneys (CWR22RV1 xenografts; 1 hour post injection): 1.43
tumor to organ ratio, large intestine (CWR22RV1 xenografts; 1 hour post injection): 1.39
tumor to organ ratio, liver (CWR22RV1 xenografts; 1 hour post injection): 1.35
tumor to organ ratio, lungs (CWR22RV1 xenografts; 1 hour post injection): 1.22
tumor to organ ratio, muscle (CWR22RV1 xenografts; 1 hour post injection): 1.79
tumor to organ ratio, small intestine (CWR22RV1 xenografts; 1 hour post injection): 1.26
tumor to organ ratio, spine (CWR22RV1 xenografts; 1 hour post injection): 1.76
tumor to organ ratio, spleen (CWR22RV1 xenografts; 1 hour post injection): 1.40
tumor to organ ratio, stomach (CWR22RV1 xenografts; 1 hour post injection): 2.50
tumor to organ ratio, blood (CWR22RV1 xenografts; 2 hours post injection): 1.03
tumor to organ ratio, bone (CWR22RV1 xenografts; 2 hours post injection): 2.14
tumor to organ ratio, heart (CWR22RV1 xenografts; 2 hours post injection): 0.94
tumor to organ ratio, kidneys (CWR22RV1 xenografts; 2 hours post injection): 1.57
tumor to organ ratio, large intestine (CWR22RV1 xenografts; 2 hours post injection): 1.49
tumor to organ ratio, liver (CWR22RV1 xenografts; 2 hours post injection): 1.24
tumor to organ ratio, lungs (CWR22RV1 xenografts; 2 hours post injection): 1.17
tumor to organ ratio, muscle (CWR22RV1 xenografts; 2 hours post injection): 1.79
tumor to organ ratio, small intestine (CWR22RV1 xenografts; 2 hours post injection): 1.57
tumor to organ ratio, spine (CWR22RV1 xenografts; 2 hours post injection): 1.61
tumor to organ ratio, spleen (CWR22RV1 xenografts; 2 hours post injection): 1.56
tumor to organ ratio, stomach (CWR22RV1 xenografts; 2 hours post injection): 3.60
tumor to organ ratio, blood (CWR22RV1 xenografts; 3 hours post injection): 1.04
tumor to organ ratio, bone (CWR22RV1 xenografts; 3 hours post injection): 2.58
tumor to organ ratio, heart (CWR22RV1 xenografts; 3 hours post injection): 1.07
tumor to organ ratio, kidneys (CWR22RV1 xenografts; 3 hours post injection): 1.60
tumor to organ ratio, large intestine (CWR22RV1 xenografts; 3 hours post injection): 1.51
tumor to organ ratio, liver (CWR22RV1 xenografts; 3 hours post injection): 1.33
tumor to organ ratio, lungs (CWR22RV1 xenografts; 3 hours post injection): 1.30
tumor to organ ratio, muscle (CWR22RV1 xenografts; 3 hours post injection): 1.76
tumor to organ ratio, small intestine (CWR22RV1 xenografts; 3 hours post injection): 1.58
tumor to organ ratio, spine (CWR22RV1 xenografts; 3 hours post injection): 1.57
tumor to organ ratio, spleen (CWR22RV1 xenografts; 3 hours post injection): 1.62
tumor to organ ratio, stomach (CWR22RV1 xenografts; 3 hours post injection): 4.48
tumor to organ ratio, blood (CWR22RV1 xenografts; 4 hours post injection): 1.06
tumor to organ ratio, bone (CWR22RV1 xenografts; 4 hours post injection): 1.90
tumor to organ ratio, heart (CWR22RV1 xenografts; 4 hours post injection): 1.00
tumor to organ ratio, kidneys (CWR22RV1 xenografts; 4 hours post injection): 1.29
tumor to organ ratio, large intestine (CWR22RV1 xenografts; 4 hours post injection): 1.87
tumor to organ ratio, liver (CWR22RV1 xenografts; 4 hours post injection): 1.41
tumor to organ ratio, lungs (CWR22RV1 xenografts; 4 hours post injection): 1.32
tumor to organ ratio, muscle (CWR22RV1 xenografts; 4 hours post injection): 1.85
tumor to organ ratio, small intestine (CWR22RV1 xenografts; 4 hours post injection): 1.44
tumor to organ ratio, spine (CWR22RV1 xenografts; 4 hours post injection): 1.44
tumor to organ ratio, spleen (CWR22RV1 xenografts; 4 hours post injection): 1.56
tumor to organ ratio, stomach (CWR22RV1 xenografts; 4 hours post injection): 3.54
tumor to organ ratio, heart (overall) (CWR22RV1 xenografts; [4]): around 0.95
tumor to organ ratio, most of the organs except heart (CWR22RV1 xenografts; [4]): greater than 1
uptake in brain (MicroPET) ([1]; 1 hour post injection): high uptake
accumulation in the kidneys of mice, unlike [18F]-FDG ([1]; 1 hour post injection, FIG. 1): much lower accumulation
tumor visualization as compared to [18F]-FDG ([1]; 1 hour post injection, same mice, FIG. 1): much more clearly
uptake in heart (MicroPET) ([1]; one hour post administration): high uptake
tumor visualization in MicroPET image ([1]; one hour post administration, transaxial and coronal slices, 5 minute acquisition time): easily visualized

O=C(O)CF [2-fluoroacetic acid]
oral LD50 in rats (rats [2]): 0.22 mg/kg

CC(F)C(=O)O (centres unmarked) [2-fluoropropanoic acid]
toxicity in rats (rats [3]): no toxicity was observed

OC[C@H]1OC(O)[C@H]([18F])[C@@H](O)[C@@H]1O (some centres unmarked) [[^18F]-FDG, [^18F]-fluorodeoxyglucose, reference compound]
uptake in brain (MicroPET) ([1]; 1 hour post injection): high uptake
